Among the data in patent US9598412B2, “Spiroindoline compounds for use as anthelminthics” (Intervet, Inc., priority 2010, dated 2017) are inhibition in vivo values, retold here.

The subject of this test is Haemonchus contortus. The experiment in a line: Efficacy against Haemonchus contortus in jirds. It counts as in vivo. The conditions noted are these: 72 h, jirds (Meriones unguiculatus), necropsy three days after treatment, read-out: reduction of the Haemonchus contortus count (mean larvae count in stomach vs untreated control group). The protocol:
Compounds according to this invention (numbers refer to the compound number in Table 1) were tested in vivo using Haemonchus contortus in jirds (Meriones unguiculatus). The jirds were orally infected with approximately 750-3.000 third-stage larvae of Haemonchus contortus. Ten days after infection, the jirds in the treatment groups were treated once either orally or subcutaneously with compounds at a dose of 10 mg or 50 mg per kg bodyweight. Three days after treatment, the jirds were necropsied, and the larvae burden in the stomach was determined. During the study no side-effects in jirds were observed. The efficacy was defined as the reduction of the mean larvae count in the infected jirds of the treatment group in comparison to the infected jirds in an untreated control group (negative control).

Setting [1] is: sc, treated once subcutaneously at 50 mg/kg bw ten days after infection.
Setting [2] is: po, treated once orally at 10 mg/kg ten days after infection.
Setting [3] is: po, treated once orally at 50 mg/kg bw ten days after infection.

Molecules are shown by their SMILES. Where two headings read alike, the source gives them in different places.

As for `O=C(c1ccnc(Cl)c1)N1CC2(CCN(C/C=C/c3ccc(Cl)c(Cl)c3)CC2)c2cc(Cl)ccc21` [Compound 27], the inhibition in vivo at 50 mg/kg under setting [1] was no less than 50%.

Consider `O=C(c1ccnc(Cl)c1)N1CC2(CCN(C/C=C/c3ccc(Cl)c(Cl)c3)CC2)c2cc(SC(F)(F)F)ccc21` [Compound 77], for which the inhibition in vivo at 10 mg/kg under setting [2] was no less than 50%.

On to `Cc1ccc2c(c1)C1(CCN(C/C=C/c3ccc(Cl)cc3F)CC1)CN2C(=O)c1ccnc(Cl)c1` [Compound 87], for which the inhibition in vivo at 10 mg/kg under setting [2] was no less than 50%.

As for `O=C(c1ccnc(Cl)c1)N1CC2(CCN(C/C=C/c3ccc(Cl)cc3)CC2)c2cc(C(F)(F)F)ccc21` [Compound 42], the inhibition in vivo at 10 mg/kg under setting [2] is no less than 50%.

`Cc1ccc2c(c1)C1(CCN(C/C=C/c3ccc(Cl)c(Cl)c3)CC1)CN2C(=O)c1ccnc(Cl)c1` [Compound 71]: the inhibition in vivo at 10 mg/kg (sc, treated once subcutaneously at 10 mg/kg ten days after infection) is no less than 50%.

On to `O=C(c1ccnc(Cl)c1)N1CC2(CCN(C/C=C/c3ccc(F)cc3F)CC2)c2c1ccc(Cl)c2Cl` [Compound 20], for which the inhibition in vivo at 50 mg/kg under setting [1] is no less than 50%.

On to `O=C(c1ccnc(Cl)c1)N1CC2(CCN(C/C=C/c3ccc(F)cc3F)CC2)c2cc(C(F)(F)F)ccc21` [Compound 12], for which, under setting [3], the inhibition in vivo at 50 mg/kg is no less than 50%.

With `O=C(c1ccnc(Cl)c1)N1CC2(CCN(C/C=C/c3ccc(F)cc3F)CC2)c2c(Cl)cc(Cl)cc21` [Compound 19], under setting [3], the inhibition in vivo at 50 mg/kg is no less than 50%.

With `O=C(c1ccnc(Cl)c1)N1CC2(CCN(C/C=C/c3cccc(Cl)c3Cl)CC2)c2cc(Cl)ccc21` [Compound 25, [5-chloro-1′-[(E)-3-(2,3-dichlorophenyl)allyl]spiro[indoline-3,4′-piperidine]-1-yl]-(2-chloro-4-pyridyl)methanone], under setting [1], the inhibition in vivo at 50 mg/kg was no less than 50%.
